Assay [1] relates to Pseudomonas aeruginosa. Nature of the assay: Antimicrobial activity against clinical isolate CF333-2007 Pseudomonas aeruginosa DK2 assessed as polymyxin B MIC measured after 18 hrs by microbroth dilution assay. The assay is classed as functional. Background: In broth dilution the organism is exposed to a series of concentrations in liquid medium.
The subject of assay [2] is Pseudomonas aeruginosa. As to the kind of experiment: Antimicrobial activity against clinical isolate CF333-2007 Pseudomonas aeruginosa DK2 measured after 18 hrs by microbroth dilution assay. The assay is classed as functional.
Assay [3] relates to Pseudomonas aeruginosa. Nature of the assay: Antimicrobial activity against clinical isolate CF333-2007 Pseudomonas aeruginosa DK2 measured after 18 hrs in presence of polymyxin B by microbroth dilution assay. It is filed as functional.
In assay [4] the test system is Pseudomonas aeruginosa. Nature of the assay: Synergistic antibacterial activity against clinical isolate CF333-2007 Pseudomonas aeruginosa DK2 assessed as fractional inhibitory concentration index incubated for 18 hrs in presence of Polymyxin B. The assay is classed as functional.
The subject of assay [5] is Pseudomonas aeruginosa. Nature of the assay: Drug resistance against pseudomonas aeruginosa DK2 assessed as increase in MIC measured after repeated passaging for 14 days. It is filed as functional. The conditions noted are these: DK2, 336 h, time 14 day.
Assay [6] concerns Pseudomonas aeruginosa. Nature of the assay: Antibacterial activity against Pseudomonas aeruginosa PAO1 infected in Caenorhabditis elegans N2 worms at 16 ug/ml. The assay is classed as functional, organism-based. To be noted: dose 16.0 µg/ml.
The test system of assay [7] is Pseudomonas aeruginosa. As to the kind of experiment: Antibacterial activity against Pseudomonas aeruginosa DK2 assessed as reduction in bacterial growth at 0.5 ug/ml measured after 24 hrs by time kill assay. The assay is classed as functional. The conditions noted are these: dose 0.5 µg/ml.
For assay [8], the system named is Pseudomonas aeruginosa. As to the kind of experiment: Drug resistance against pseudomonas aeruginosa DK2 assessed as fold increase in MIC measured after repeated passaging for 14 days. The assay is classed as functional. The conditions noted are these: time 14 day.

In brackets after ≈: the same amount, converted by molar mass. Activity calls are given as the source filed them. The rule behind the calls is not given here. Bridge positions count the residues as written; N and C are the ends. Square brackets hold non-standard residues; d marks the D form. Peptide text beside a SMILES is read from it. * marks the point of attachment. X1 = CC[C@H](C)CCCCC(=O)*; Dab = NCC[C@H](N)C(=O)O A value given as a limit tells only on which side of the number the result lay.

A word on the MIC: it is the lowest concentration that inhibits growth of the organism.

As to `O=C(Nc1ccc([N+](=O)[O-])cc1Cl)c1ccncc1`, the MIC in the assay with Pseudomonas aeruginosa [1] is > 32 µg/mL; against Pseudomonas aeruginosa [2], > 1020 µg/mL; with Pseudomonas aeruginosa [3], > 32 µg/mL.

On to `O=C(Nc1ccc([N+](=O)[O-])cc1Cl)c1cc(Cl)ccc1O[C@H]1O[C@H](CO)[C@H](O)[C@H](O)[C@H]1O`, for which the “fractional inhibitory concentration index (FICI)” value in the assay on Pseudomonas aeruginosa [4] came to 0.094. Moreover, the minimal inhibitory concentration (MIC) was 16 µg/mL in the assay on Pseudomonas aeruginosa [1], > 1020 µg/mL with Pseudomonas aeruginosa [2] and 32 µg/mL in the assay on Pseudomonas aeruginosa [3].

For `O=C(Nc1ccc([N+](=O)[O-])cc1Cl)c1cc(Cl)ccc1OC(=O)[C@@H]1CCCN1`, the “fractional inhibitory concentration index (FICI)” value in the assay on Pseudomonas aeruginosa [4] is 0.078. In addition, the MIC with Pseudomonas aeruginosa [1] was 16 µg/mL; in the assay with Pseudomonas aeruginosa [2], > 1020 µg/mL; in the assay on Pseudomonas aeruginosa [3], 16 µg/mL.

As to `O=C(Nc1ccc(S)cc1)c1cc(Cl)ccc1O`, the MIC was > 32 µg/mL in the assay with Pseudomonas aeruginosa [1], > 1020 µg/mL in the assay on Pseudomonas aeruginosa [2] and > 32 µg/mL with Pseudomonas aeruginosa [3].

As to `O=C(Nc1ccc([N+](=O)[O-])cc1Cl)c1ccccc1O`, the “fractional inhibitory concentration index (FICI)” value with Pseudomonas aeruginosa [4] turned out to be 0.01. The MIC with Pseudomonas aeruginosa [1] is 2 µg/mL; with Pseudomonas aeruginosa [2] it was > 1020 µg/mL; in the assay on Pseudomonas aeruginosa [3], 2 µg/mL.

Take `O=C(Oc1ccc([N+](=O)[O-])cc1Cl)c1cc(Cl)ccc1O`: the “fractional inhibitory concentration index (FICI)” value in the assay on Pseudomonas aeruginosa [4] stood at 0.141. Further, the minimum inhibitory concentration (MIC) with Pseudomonas aeruginosa [1] turned out to be 8 µg/mL; in the assay on Pseudomonas aeruginosa [3], 16 µg/mL.

`O=C(Nc1ccc([N+](=O)[O-])cc1Cl)c1cc(F)c(F)cc1O`: the “fractional inhibitory concentration index (FICI)” value in the assay on Pseudomonas aeruginosa [4] turned out to be 0.012. Besides, the MIC is 1 µg/mL with Pseudomonas aeruginosa [1], > 1020 µg/mL against Pseudomonas aeruginosa [2] and 8 µg/mL in the assay on Pseudomonas aeruginosa [3].

In the case of `O=C(Nc1ccc([N+](=O)[O-])cc1O)c1cc(Cl)ccc1O`, in the assay with Pseudomonas aeruginosa [4], the “fractional inhibitory concentration index (FICI)” value is recorded as 0.078. For the same compound, the MIC in the assay on Pseudomonas aeruginosa [1] and in the assay with Pseudomonas aeruginosa [3] was 4 µg/mL each time.

As to `O=C(Nc1ccc(N2CCOCC2=O)cc1)c1cc(F)ccc1O`, in the assay on Pseudomonas aeruginosa [2], the MIC was > 1020 µg/mL.

As to `O=C(Nc1ccc2[nH]c(=O)sc2c1)c1cc(F)ccc1O`, the MIC in the assay on Pseudomonas aeruginosa [2] is > 1020 µg/mL.

Take `O=C(Nc1ccc([N+](=O)[O-])cc1Cl)c1cccc(F)c1O`: in the assay on Pseudomonas aeruginosa [4], the “fractional inhibitory concentration index (FICI)” value is given as 0.129. In addition, the figures for the minimal inhibitory concentration (MIC) in the assay on Pseudomonas aeruginosa [1] and in the assay with Pseudomonas aeruginosa [3] were 1 µg/mL and 32 µg/mL, respectively.

On to `Cc1ccc(O)c(C(=O)Nc2ccc([N+](=O)[O-])cc2Cl)c1`, for which the “fractional inhibitory concentration index (FICI)” value with Pseudomonas aeruginosa [4] amounted to 0.017. For the same compound, the minimum inhibitory concentration (MIC) in the assay with Pseudomonas aeruginosa [1] is 4 µg/mL; in the assay with Pseudomonas aeruginosa [2], > 1020 µg/mL; in the assay on Pseudomonas aeruginosa [3], 1 µg/mL.

`O=C(Nc1ccc([N+](=O)[O-])cc1Cl)c1cccc(Cl)c1`: the MIC was > 32 µg/mL in the assay with Pseudomonas aeruginosa [1], > 1020 µg/mL with Pseudomonas aeruginosa [2] and > 32 µg/mL in the assay on Pseudomonas aeruginosa [3].

Regarding `O=C(Nc1ccccc1Cl)c1cc(Cl)ccc1O`, in the assay on Pseudomonas aeruginosa [4], the “fractional inhibitory concentration index (FICI)” value came out at 0.012. The MIC was 2 µg/mL in the assay with Pseudomonas aeruginosa [1], > 1020 µg/mL against Pseudomonas aeruginosa [2] and 4 µg/mL in the assay on Pseudomonas aeruginosa [3].

Regarding `COc1ccc(O)c(C(=O)Nc2ccc([N+](=O)[O-])cc2Cl)c1`, the “fractional inhibitory concentration index (FICI)” value in the assay with Pseudomonas aeruginosa [4] is 0.023. Also, the MIC was 4 µg/mL in the assay on Pseudomonas aeruginosa [1], > 1020 µg/mL against Pseudomonas aeruginosa [2] and 8 µg/mL in the assay with Pseudomonas aeruginosa [3].

Turning to `O=C(Nc1ccc(O)cc1Cl)c1cc(F)ccc1O`, the MIC in the assay with Pseudomonas aeruginosa [2] was > 1020 µg/mL.

Turning to `O=C(Nc1ccc([N+](=O)[O-])cc1Cl)c1cc(O)ccc1O`, the MIC in the assay with Pseudomonas aeruginosa [1] is > 32 µg/mL; against Pseudomonas aeruginosa [2], > 1020 µg/mL; in the assay on Pseudomonas aeruginosa [3], > 32 µg/mL.

For `O=C(Nc1ccc([N+](=O)[O-])cc1Cl)c1cccc(Br)c1O`, the “fractional inhibitory concentration index (FICI)” value in the assay on Pseudomonas aeruginosa [4] was found to be 0.254. The minimal inhibitory concentration (MIC) was 1 µg/mL in the assay with Pseudomonas aeruginosa [1] and 16 µg/mL with Pseudomonas aeruginosa [3].

`O=C(Nc1ccccc1)c1cc(Cl)ccc1O`: in the assay with Pseudomonas aeruginosa [4], the “fractional inhibitory concentration index (FICI)” value amounted to 0.012. Further, the minimum inhibitory concentration (MIC) in the assay on Pseudomonas aeruginosa [1] is 2 µg/mL; against Pseudomonas aeruginosa [2] it was > 1020 µg/mL; in the assay with Pseudomonas aeruginosa [3], 4 µg/mL.

As for `O=C(Nc1ccc([N+](=O)[O-])cc1Cl)c1ccccc1`, the minimal inhibitory concentration (MIC) was > 32 µg/mL in the assay on Pseudomonas aeruginosa [1], > 1020 µg/mL in the assay on Pseudomonas aeruginosa [2] and > 32 µg/mL in the assay with Pseudomonas aeruginosa [3].

Turning to `O=C(Nc1ccc([N+](=O)[O-])cc1Cl)c1cc(Br)ccc1O`, the “fractional inhibitory concentration index (FICI)” value with Pseudomonas aeruginosa [4] is on record as 0.066. In addition, the MIC in the assay on Pseudomonas aeruginosa [1] was 1 µg/mL; in the assay with Pseudomonas aeruginosa [2], > 1020 µg/mL; in the assay with Pseudomonas aeruginosa [3], 32 µg/mL.

Regarding `Nc1ccc(NC(=O)c2cc(Cl)ccc2O)c(Cl)c1`, the “fractional inhibitory concentration index (FICI)” value in the assay with Pseudomonas aeruginosa [4] stood at 0.047. The MIC is 8 µg/mL in the assay on Pseudomonas aeruginosa [1], > 1020 µg/mL in the assay with Pseudomonas aeruginosa [2] and 16 µg/mL in the assay on Pseudomonas aeruginosa [3].

Turning to `O=C(Nc1ccc(O)cc1Cl)c1cc(Cl)ccc1O`, in the assay with Pseudomonas aeruginosa [4], the “fractional inhibitory concentration index (FICI)” value is 0.141. The figures for the minimal inhibitory concentration (MIC) in the assay with Pseudomonas aeruginosa [1] and in the assay on Pseudomonas aeruginosa [3] were 4 µg/mL and 32 µg/mL, respectively.

`O=C(Nc1ccc([N+](=O)[O-])cc1Cl)c1cc(C(F)(F)F)ccc1O`: in the assay on Pseudomonas aeruginosa [4], the “fractional inhibitory concentration index (FICI)” value was 0.023. Also, the MIC with Pseudomonas aeruginosa [1] is 2 µg/mL; against Pseudomonas aeruginosa [2], > 1020 µg/mL; in the assay on Pseudomonas aeruginosa [3], 16 µg/mL.

As to `O=C(Nc1ccc([N+](=O)[O-])cc1Cl)c1ccc(Br)cc1O`, the “fractional inhibitory concentration index (FICI)” value with Pseudomonas aeruginosa [4] was found to be 0.012. Also, the MIC with Pseudomonas aeruginosa [1] was 1 µg/mL; in the assay with Pseudomonas aeruginosa [2], > 1020 µg/mL; with Pseudomonas aeruginosa [3], 8 µg/mL.

As for `O=C(Nc1ccc([N+](=O)[O-])cc1Cl)c1cc(Cl)ccc1O` [NICLOSAMIDE], the “fractional inhibitory concentration index (FICI)” value with Pseudomonas aeruginosa [4] turned out to be 0.01. Besides, the MIC in the assay on Pseudomonas aeruginosa [1] and in the assay on Pseudomonas aeruginosa [3] was 2 µg/mL in each case.

`CC[C@H](C)CCCCC(=O)N[C@@H](CCN)C(=O)N[C@H](C(=O)N[C@@H](CCN)C(=O)N[C@H]1CCNC(=O)[C@H]([C@@H](C)O)NC(=O)[C@H](CCN)NC(=O)[C@H](CCN)NC(=O)[C@H](CC(C)C)NC(=O)[C@@H](Cc2ccccc2)NC(=O)[C@H](CCN)NC1=O)[C@@H](C)O` (X1-[Dab]T[Dab][Dab][Dab][dF]L[Dab][Dab]T; lactam 4-C): the minimal inhibitory concentration (MIC) in the assay with Pseudomonas aeruginosa [5] is 8190 µg/mL; against Pseudomonas aeruginosa [2] it was 256 µg/mL (≈ 0.213 mM). In addition, the outcome in the assay with Pseudomonas aeruginosa [6] was Active. Also, the Activity in the assay with Pseudomonas aeruginosa [7] was 6.38 log10CFU/ml. In addition, in the assay on Pseudomonas aeruginosa [8], the “fold change (FC)” value was found to be 32.

Turning to `O=C(Nc1ccc([N+](=O)[O-])cc1Cl)c1ccc(O)cc1O`, the minimal inhibitory concentration (MIC) is > 32 µg/mL in the assay with Pseudomonas aeruginosa [1], > 1020 µg/mL with Pseudomonas aeruginosa [2] and > 32 µg/mL in the assay with Pseudomonas aeruginosa [3].

Take `O=C(O)c1ccc(NC(=O)c2cc(Cl)ccc2O)c(Cl)c1`: the values for the minimum inhibitory concentration (MIC) in the assay with Pseudomonas aeruginosa [1], against Pseudomonas aeruginosa [2] and in the assay with Pseudomonas aeruginosa [3] were > 32 µg/mL, > 1020 µg/mL and > 32 µg/mL, respectively.

For `O=C(Nc1ccc([N+](=O)[O-])cc1Cl)c1ccc(F)cc1O`, in the assay with Pseudomonas aeruginosa [4], the “fractional inhibitory concentration index (FICI)” value stood at 0.066. Also, the MIC in the assay on Pseudomonas aeruginosa [1] came to 1 µg/mL; with Pseudomonas aeruginosa [3], 16 µg/mL.

With `CC(=O)N1CCc2cc(NC(=O)c3cc(F)ccc3O)ccc21`, the minimal inhibitory concentration (MIC) against Pseudomonas aeruginosa [2] is > 1020 µg/mL.

As to `O=C(Nc1cc(Cl)ccc1O)c1ccc([N+](=O)[O-])cc1Cl`, the “fractional inhibitory concentration index (FICI)” value in the assay on Pseudomonas aeruginosa [4] came out at 0.031. The minimal inhibitory concentration (MIC) in the assay with Pseudomonas aeruginosa [1] is 4 µg/mL; in the assay on Pseudomonas aeruginosa [2] it was > 1020 µg/mL; in the assay with Pseudomonas aeruginosa [3], 16 µg/mL.

For `O=C(Nc1ccc(S(=O)(=O)N2CCOCC2)cc1)c1cc(F)ccc1O`, in the assay on Pseudomonas aeruginosa [2], the MIC is > 1020 µg/mL.

As to `O=C(Nc1cccnc1)c1cc(Cl)ccc1O`, the MIC was > 32 µg/mL with Pseudomonas aeruginosa [1], > 1020 µg/mL against Pseudomonas aeruginosa [2] and > 32 µg/mL in the assay with Pseudomonas aeruginosa [3].

Regarding `O=C(Nc1ccc(O[C@H]2O[C@H](CO)[C@H](O)[C@H](O)[C@H]2O)cc1Cl)c1cc(Cl)ccc1O`, the MIC is > 32 µg/mL in the assay with Pseudomonas aeruginosa [1], > 1020 µg/mL in the assay on Pseudomonas aeruginosa [2] and > 32 µg/mL in the assay on Pseudomonas aeruginosa [3].

For the compound `O=C(Nc1ccc(O)cc1Cl)c1ccc(Br)cc1O`, the minimal inhibitory concentration (MIC) against Pseudomonas aeruginosa [2] is > 1020 µg/mL.

Values taken from ChEMBL document CHEMBL5131512, “Novel niclosamide-derived adjuvants elevating the efficacy of polymyxin B against MDR Pseudomonas aeruginosa DK2” (Eur J Med Chem, 2022).
